Assays:
Assay in all cases: cells
[1] = test system: A-375; type: functional, cell-based, Homo sapiens;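 note: growth inhibition of A375 cells, read out with a cell viability assay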
Description: SANGER: Inhibition of human A375 cell growth in a cell viability assay.

[2] = test system: HT-3; type: functional, cell-based, Homo sapiens;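 note: growth inhibition measured with a cell viability readout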
Description: SANGER: Inhibition of human HT-3 cell growth in a cell viability assay.

[3] = test system: A2780; type: functional, cell-based, Homo sapiens;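 note: growth inhibition of A2780 cells, read out with a cell viability assay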
Description: SANGER: Inhibition of human A2780 cell growth in a cell viability assay.

[4] = test system: Detroit 562; type: functional, cell-based, Homo sapiens;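 note: growth inhibition of human Detroit 562 cells, read out by a cell viability assay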
Description: SANGER: Inhibition of human Detroit562 cell growth in a cell viability assay.

[5] = test system: NCI-H226; type: functional, cell-based, Homo sapiens;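 note: cell viability read-out used to gauge growth inhibition of the cells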
Description: SANGER: Inhibition of human NCI-H226 cell growth in a cell viability assay.

[6] = test system: NCI-H1581; type: functional, cell-based, Homo sapiens;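 note: cell growth inhibition read out by a viability assay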
Description: SANGER: Inhibition of human NCI-H1581 cell growth in a cell viability assay.

[7] = test system: LNCaP-Clone-FGC; type: functional, cell-based, Homo sapiens
Description: SANGER: Inhibition of human LNCaP-Clone-FGC cell growth in a cell viability assay.

[8] = test system: NCI-H720; type: functional, cell-based, Homo sapiens;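 note: growth inhibition of human NCI-H720 cells determined by a cell viability assay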
Description: SANGER: Inhibition of human NCI-H720 cell growth in a cell viability assay.

[9] = test system: MHH-ES-1; type: functional, cell-based, Homo sapiens;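 note: cell growth inhibition measured by a cell viability assay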
Description: SANGER: Inhibition of human MHH-ES-1 cell growth in a cell viability assay.

[10] = test system: DMS-273; type: functional, cell-based, Homo sapiens
Description: SANGER: Inhibition of human DMS-273 cell growth in a cell viability assay.

[11] = test system: HT-1376; type: functional, cell-based, Homo sapiens
Description: SANGER: Inhibition of human HT-1376 cell growth in a cell viability assay.

[12] = test system: SK-MEL3; type: functional, cell-based, Homo sapiens, SK-MEL-3;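 note: growth inhibition of human SK-MEL-3 cells, read out with a cell viability assay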
Description: SANGER: Inhibition of human SK-MEL-3 cell growth in a cell viability assay.

[13] = test system: MSTO-211H; type: functional, cell-based, Homo sapiens
Description: SANGER: Inhibition of human MSTO-211H cell growth in a cell viability assay.

[14] = test system: MC116; type: functional, cell-based, Homo sapiens;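 note: growth inhibition of MC116 cells, read out with a cell viability assay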
Description: SANGER: Inhibition of human MC116 cell growth in a cell viability assay.

[15] = test system: MPP-89; type: functional, cell-based, Homo sapiens;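 note: growth inhibition of human MPP-89 cells, read out with a cell viability assay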
Description: SANGER: Inhibition of human MPP-89 cell growth in a cell viability assay.

[16] = test system: MRK-nu-1; type: functional, cell-based, Homo sapiens;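 note: cell viability assay measuring growth suppression of human MRK-nu-1 cells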
Description: SANGER: Inhibition of human MRK-nu-1 cell growth in a cell viability assay.

[17] = test system: KU812 cell line; type: functional, cell-based, Homo sapiens;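 note: growth inhibition of KU812 cells, read out with a cell viability assay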
Description: SANGER: Inhibition of human KU812 cell growth in a cell viability assay.

[18] = test system: MZ2-MEL; type: functional, cell-based, Homo sapiens;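 note: growth inhibition of MZ2-MEL cells read out with a cell viability assay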
Description: SANGER: Inhibition of human MZ2-MEL cell growth in a cell viability assay.

[19] = test system: OVCAR-8; type: functional, cell-based, Homo sapiens;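 note: growth inhibition of human OVCAR-8 cells, read out by a cell viability assay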
Description: SANGER: Inhibition of human OVCAR-8 cell growth in a cell viability assay.

[20] = test system: DBTRG-05MG; type: functional, cell-based, Homo sapiens;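 note: cell viability assay measuring growth inhibition of human DBTRG-05MG cells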
Description: SANGER: Inhibition of human DBTRG-05MG cell growth in a cell viability assay.

[21] = test system: HOS; type: functional, cell-based, Homo sapiens;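 note: growth inhibition of human HOS cells, read out with a cell viability assay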
Description: SANGER: Inhibition of human HOS cell growth in a cell viability assay.

[22] = test system: KOSC-2; type: functional, cell-based, Homo sapiens;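 note: growth inhibition of KOSC-2 cells, read out by a cell viability assay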
Description: SANGER: Inhibition of human KOSC-2 cell growth in a cell viability assay.

[23] = test system: THP-1; type: functional, cell-based, Homo sapiens;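 note: growth inhibition of THP-1 cells, read out via a cell viability assay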
Description: SANGER: Inhibition of human THP-1 cell growth in a cell viability assay.

[24] = test system: PANC-03-27; type: functional, cell-based, Homo sapiens
Description: SANGER: Inhibition of human PANC-03-27 cell growth in a cell viability assay.

[25] = test system: LB996-RCC; type: functional, cell-based, Homo sapiens
Description: SANGER: Inhibition of human LB996-RCC cell growth in a cell viability assay.

[26] = test system: LXF-289 cell line; type: functional, cell-based, Homo sapiens
Description: SANGER: Inhibition of human LXF-289 cell growth in a cell viability assay.

[27] = test system: OE19; type: functional, cell-based, Homo sapiens;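 note: growth inhibition of OE19 cells, measured through a cell viability read-out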
Description: SANGER: Inhibition of human OE19 cell growth in a cell viability assay.

[28] = test system: NCI-H2342; type: functional, cell-based, Homo sapiens;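 note: growth inhibition of the cancer cell line, determined with a cell viability assay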
Description: SANGER: Inhibition of human NCI-H2342 cell growth in a cell viability assay.

[29] = test system: D-542MG; type: functional, cell-based, Homo sapiens
Description: SANGER: Inhibition of human D-542MG cell growth in a cell viability assay.

[30] = test system: OS-RC-2; type: functional, cell-based, Homo sapiens;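 note: growth inhibition of human OS-RC-2 cells, measured by a cell viability assay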
Description: SANGER: Inhibition of human OS-RC-2 cell growth in a cell viability assay.

[31] = test system: SK-MEL-24; type: functional, cell-based, Homo sapiens;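 note: growth inhibition read out by a cell viability assay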
Description: SANGER: Inhibition of human SK-MEL-24 cell growth in a cell viability assay.

[32] = test system: UMUC3; type: functional, cell-based, Homo sapiens;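 note: growth inhibition of human UM-UC-3 cells, read out with a cell viability assay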
Description: SANGER: Inhibition of human UM-UC-3 cell growth in a cell viability assay.

[33] = test system: HCE-4; type: functional, cell-based, Homo sapiens;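 note: cell viability assay measuring inhibition of growth in the human HCE-4 cell line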
Description: SANGER: Inhibition of human HCE-4 cell growth in a cell viability assay.

[34] = test system: HCC1569; type: functional, cell-based, Homo sapiens;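 note: growth inhibition of human HCC1569 cells, read out with a cell viability assay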
Description: SANGER: Inhibition of human HCC1569 cell growth in a cell viability assay.

[35] = test system: 639-V; type: functional, cell-based, Homo sapiens;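 note: growth inhibition of 639-V cells, read out with a cell viability assay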
Description: SANGER: Inhibition of human 639-V cell growth in a cell viability assay.

[36] = test system: HSC-2; type: functional, cell-based, Homo sapiens;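 note: growth inhibition of human HSC-2 cells, read out by a cell viability assay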
Description: SANGER: Inhibition of human HSC-2 cell growth in a cell viability assay.

[37] = test system: ME-180; type: functional, cell-based, Homo sapiens;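 note: cell viability assay measuring growth inhibition of ME-180 cells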
Description: SANGER: Inhibition of human ME-180 cell growth in a cell viability assay.

[38] = test system: NCI-H716; type: functional, cell-based, Homo sapiens;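 note: growth inhibition of human NCI-H716 cells, measured by a cell viability assay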
Description: SANGER: Inhibition of human NCI-H716 cell growth in a cell viability assay.

[39] = test system: SK-N-DZ; type: functional, cell-based, Homo sapiens;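 note: growth inhibition of the cancer cell line, read out through a viability assay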
Description: SANGER: Inhibition of human SK-N-DZ cell growth in a cell viability assay.

[40] = test system: SJRH30; type: functional, cell-based, Homo sapiens;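 note: growth inhibition of human SJRH30 cells, read out with a cell viability assay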
Description: SANGER: Inhibition of human SJRH30 cell growth in a cell viability assay.

[41] = test system: Calu-3; type: functional, cell-based, Homo sapiens;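 note: growth inhibition of human Calu-3 cells, determined with a cell viability assay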
Description: SANGER: Inhibition of human Calu-3 cell growth in a cell viability assay.

[42] = test system: CWR22R; type: functional, cell-based, Homo sapiens;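 note: growth inhibition of 22Rv1 cells, read out with a cell viability assay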
Description: SANGER: Inhibition of human 22RV1 cell growth in a cell viability assay.

[43] = test system: LS-411N; type: functional, cell-based, Homo sapiens
[44] = test system: NCI-H2087; type: functional, cell-based, Homo sapiens;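 note: growth inhibition determined with a cell viability readout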
Description: SANGER: Inhibition of human NCI-H2087 cell growth in a cell viability assay.

[45] = test system: CPC-N; type: functional, cell-based, Homo sapiens;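 note: growth inhibition of CPC-N cells, with a cell viability assay as the readout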
Description: SANGER: Inhibition of human CPC-N cell growth in a cell viability assay.

[46] = test system: CAL-62; type: functional, cell-based, Homo sapiens;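 note: growth inhibition of CAL-62 cells, read out with a cell viability assay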
Description: SANGER: Inhibition of human CAL-62 cell growth in a cell viability assay.

[47] = test system: VMRC-RCZ; type: functional, cell-based, Homo sapiens;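 note: growth inhibition measured with a cell viability assay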
Description: SANGER: Inhibition of human VMRC-RCZ cell growth in a cell viability assay.

Molecule: C=C(c1ccc(C(=O)O)cc1)c1cc2c(cc1C)C(C)(C)CCC2(C)C [BEXAROTENE]
- IC50 ([1]; Homo sapiens, A-375): > 8 µM
- IC50 ([2]; Homo sapiens, HT-3): > 8 µM
- IC50 ([3]; Homo sapiens, A2780): > 8 µM
- IC50 ([4]; Homo sapiens, Detroit 562): > 8 µM
- IC50 ([5]; Homo sapiens, NCI-H226): > 8 µM
- IC50 ([6]; Homo sapiens, NCI-H1581): > 8 µM
- IC50 ([7]; Homo sapiens, LNCaP-Clone-FGC): > 8 µM
- IC50 ([8]; Homo sapiens, NCI-H720): > 8 µM
- IC50 ([9]; Homo sapiens, MHH-ES-1): > 8 µM
- IC50 ([10]; Homo sapiens, DMS-273): > 8 µM
- IC50 ([11]; Homo sapiens, HT-1376): > 8 µM
- IC50 ([12]; Homo sapiens, SK-MEL3): > 8 µM
- IC50 ([13]; Homo sapiens, MSTO-211H): > 8 µM
- IC50 ([14]; Homo sapiens, MC116): > 8 µM
- IC50 ([15]; Homo sapiens, MPP-89): > 8 µM
- IC50 ([16]; Homo sapiens, MRK-nu-1): > 8 µM
- IC50 ([17]; Homo sapiens, KU812): > 8 µM
- IC50 ([18]; Homo sapiens, MZ2-MEL): > 8 µM
- IC50 ([19]; Homo sapiens, OVCAR-8): > 8 µM
- IC50 ([20]; Homo sapiens, DBTRG-05MG): > 8 µM
- IC50 ([21]; Homo sapiens, HOS): > 8 µM
- IC50 ([22]; Homo sapiens, KOSC-2): > 8 µM
- IC50 ([23]; Homo sapiens, THP-1): > 8 µM
- IC50 ([24]; Homo sapiens, PANC-03-27): > 8 µM
- IC50 ([25]; Homo sapiens, LB996-RCC): > 8 µM
- IC50 ([26]; Homo sapiens, LXF-289): > 8 µM
- IC50 ([27]; Homo sapiens, OE19): > 8 µM
- IC50 ([28]; Homo sapiens, NCI-H2342): > 8 µM
- IC50 ([29]; Homo sapiens, D-542MG): > 8 µM
- IC50 ([30]; Homo sapiens, OS-RC-2): > 8 µM
- IC50 ([31]; Homo sapiens, SK-MEL-24): > 8 µM
- IC50 ([32]; Homo sapiens, UMUC3): > 8 µM
- IC50 ([33]; Homo sapiens, HCE-4): > 8 µM
- IC50 ([34]; Homo sapiens, HCC1569): > 8 µM
- IC50 ([35]; Homo sapiens, 639-V): > 8 µM
- IC50 ([36]; Homo sapiens, HSC-2): > 8 µM
- IC50 ([37]; Homo sapiens, ME-180): > 8 µM
- IC50 ([38]; Homo sapiens, NCI-H716): > 8 µM
- IC50 ([39]; Homo sapiens, SK-N-DZ): > 8 µM
- IC50 ([40]; Homo sapiens, SJRH30): > 8 µM
- IC50 ([41]; Homo sapiens, Calu-3): > 8 µM
- IC50 ([42]; Homo sapiens, 22Rv1): > 8 µM
- IC50 ([43]; Homo sapiens, LS-411N): > 8 µM
- IC50 ([44]; Homo sapiens, NCI-H2087): > 8 µM
- IC50 ([45]; Homo sapiens, CPC-N): > 8 µM
- IC50 ([46]; Homo sapiens, CAL-62): > 8 µM
- IC50 ([47]; Homo sapiens, VMRC-RCZ): > 8 µM

Molecule: COc1cccc2c1C(=O)c1c(O)c3c(c(O)c1C2=O)C[C@@](O)(C(=O)CO)C[C@@H]3O[C@H]1C[C@H](N)[C@H](O)[C@H](C)O1 [DOXORUBICIN]
- IC50 ([1]; Homo sapiens, A-375): 0.00917 µM
- IC50 ([2]; Homo sapiens, HT-3): 0.133 µM
- IC50 ([3]; Homo sapiens, A2780): 0.0688 µM
- IC50 ([4]; Homo sapiens, Detroit 562): 0.231 µM
- IC50 ([5]; Homo sapiens, NCI-H226): 0.417 µM
- IC50 ([6]; Homo sapiens, NCI-H1581): 0.981 µM
- IC50 ([7]; Homo sapiens, LNCaP-Clone-FGC): 0.204 µM
- IC50 ([8]; Homo sapiens, NCI-H720): > 1.02 µM
- IC50 ([9]; Homo sapiens, MHH-ES-1): 0.0216 µM
- IC50 ([10]; Homo sapiens, DMS-273): 0.0789 µM
- IC50 ([11]; Homo sapiens, HT-1376): 0.189 µM
- IC50 ([12]; Homo sapiens, SK-MEL3): 0.148 µM
- IC50 ([13]; Homo sapiens, MSTO-211H): > 1.02 µM
- IC50 ([14]; Homo sapiens, MC116): 0.391 µM
- IC50 ([15]; Homo sapiens, MPP-89): 0.393 µM
- IC50 ([16]; Homo sapiens, MRK-nu-1): 0.0437 µM
- IC50 ([17]; Homo sapiens, KU812): 0.0332 µM
- IC50 ([18]; Homo sapiens, MZ2-MEL): 0.0339 µM
- IC50 ([19]; Homo sapiens, OVCAR-8): 0.0619 µM
- IC50 ([20]; Homo sapiens, DBTRG-05MG): 0.0671 µM
- IC50 ([21]; Homo sapiens, HOS): 0.0453 µM
- IC50 ([22]; Homo sapiens, KOSC-2): 0.249 µM
- IC50 ([23]; Homo sapiens, THP-1): 0.989 µM
- IC50 ([24]; Homo sapiens, PANC-03-27): 0.0282 µM
- IC50 ([25]; Homo sapiens, LB996-RCC): 0.0785 µM
- IC50 ([26]; Homo sapiens, LXF-289): 0.109 µM
- IC50 ([27]; Homo sapiens, OE19): 0.2 µM
- IC50 ([28]; Homo sapiens, NCI-H2342): 0.0229 µM
- IC50 ([29]; Homo sapiens, D-542MG): > 1.02 µM
- IC50 ([30]; Homo sapiens, OS-RC-2): 0.182 µM
- IC50 ([31]; Homo sapiens, SK-MEL-24): 0.914 µM
- IC50 ([32]; Homo sapiens, UMUC3): 0.086 µM
- IC50 ([33]; Homo sapiens, HCE-4): 0.0181 µM
- IC50 ([34]; Homo sapiens, HCC1569): 0.109 µM
- IC50 ([35]; Homo sapiens, 639-V): 0.0159 µM
- IC50 ([36]; Homo sapiens, HSC-2): 0.0268 µM
- IC50 ([37]; Homo sapiens, ME-180): 0.186 µM
- IC50 ([38]; Homo sapiens, NCI-H716): > 1.02 µM
- IC50 ([39]; Homo sapiens, SK-N-DZ): > 1.02 µM
- IC50 ([40]; Homo sapiens, SJRH30): 0.173 µM
- IC50 ([41]; Homo sapiens, Calu-3): 0.056 µM
- IC50 ([42]; Homo sapiens, 22Rv1): 0.0212 µM
- IC50 ([43]; Homo sapiens, LS-411N): 0.0991 µM
- IC50 ([44]; Homo sapiens, NCI-H2087): 0.0494 µM
- IC50 ([45]; Homo sapiens, CPC-N): 0.0684 µM
- IC50 ([46]; Homo sapiens, CAL-62): 0.0328 µM
- IC50 ([47]; Homo sapiens, VMRC-RCZ): 0.0933 µM

Molecule: BLEOMYCIN
- IC50 ([1]; a-375): 0.0711 µM
- IC50 ([2]; ht-3): 5.78 µM
- IC50 ([3]; a2780): 0.22 µM
- IC50 ([4]; detroit 562): 11.9 µM
- IC50 ([5]; nci-h226): 77.4 µM
- IC50 ([6]; nci-h1581): 110 µM
- IC50 ([7]; lncap-clone-fgc): 18.3 µM
- IC50 ([8]; nci-h720): 103 µM
- IC50 ([9]; mhh-es-1): 0.0436 µM
- IC50 ([10]; dms-273): 2.98 µM
- IC50 ([11]; ht-1376): 9.74 µM
- IC50 ([12]; sk-mel-3): 22.2 µM
- IC50 ([13]; msto-211h): 149 µM
- IC50 ([14]; mc116): 2.11 µM
- IC50 ([15]; mpp-89): 39.9 µM
- IC50 ([16]; mrk-nu-1): 1.45 µM
- IC50 ([17]; ku812): 68 µM
- IC50 ([18]; mz2-mel): 2.95 µM
- IC50 ([19]; ovcar-8): 0.000476 µM
- IC50 ([20]; dbtrg-05mg): 5.67 µM
- IC50 ([21]; hos): 0.56 µM
- IC50 ([22]; kosc-2): 319 µM
- IC50 ([23]; thp-1): 92.5 µM
- IC50 ([24]; panc-03-27): 0.316 µM
- IC50 ([25]; lb996-rcc): 0.175 µM
- IC50 ([26]; lxf-289): 0.644 µM
- IC50 ([27]; oe19): 2.14 µM
- IC50 ([28]; nci-h2342): 0.0138 µM
- IC50 ([29]; d-542mg): 60.3 µM
- IC50 ([30]; os-rc-2): 3.02 µM
- IC50 ([31]; sk-mel-24): 23.3 µM
- IC50 ([32]; umuc3): 0.956 µM
- IC50 ([33]; hce-4): 0.453 µM
- IC50 ([34]; hcc1569): 0.604 µM
- IC50 ([35]; 639-v): 0.22 µM
- IC50 ([36]; hsc-2): 2.47 µM
- IC50 ([37]; me-180): 40.9 µM
- IC50 ([38]; nci-h716): 1420 µM
- IC50 ([39]; sk-n-dz): 170 µM
- IC50 ([40]; sjrh30): 0.414 µM
- IC50 ([41]; calu-3): 6.19 µM
- IC50 ([42]; cwr22r): 7.33 µM
- IC50 ([43]; ls-411n): 0.0528 µM
- IC50 ([44]; nci-h2087): 2.35 µM
- IC50 ([45]; cpc-n): 52.5 µM
- IC50 ([46]; cal-62): 3.34 µM
- IC50 ([47]; vmrc-rcz): 2.69 µM

Reference: ChEMBL document CHEMBL1201861, “Genomics of Drug Sensitity in Cancer screening data, Wellcome Trust Sanger Institute”
